Inconclusive results and toxic doses are left out.
System: L1210 leukemia ip in BDF1 mice, survival T/C
Assay: NCI In Vivo Anticancer Drug Screen. Data for tumor model L1210 Leukemia (intraperitoneal) in B6D2F1 (BDF1) mice
Conditions: endpoint: mean survival time, higher = longer survival
Method in brief: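 In this screen, tumor-bearing mice given compound are compared to those given vehicle, and their survival values are reported as a treated-to-control quotient.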

[1] = dose: 100.0 mg/kg/injection, schedule: Q01DX001 (ip), vehicle: saline
[2] = dose: 200.0 mg/kg/injection, schedule: Q01DX001 (ip), vehicle: saline
[3] = dose: 400.0 mg/kg/injection, schedule: Q01DX001 (ip), vehicle: saline
[4] = dose: 100.0 mg/kg/injection, schedule: Q04DX003 (ip), vehicle: saline
[5] = dose: 200.0 mg/kg/injection, schedule: Q04DX003 (ip), vehicle: saline
[6] = dose: 50.0 mg/kg/injection, schedule: Q04DX002 (ip), vehicle: saline with Tween-80
[7] = dose: 100.0 mg/kg/injection, schedule: Q04DX003 (ip), vehicle: saline with Tween-80
[8] = dose: 200.0 mg/kg/injection, schedule: Q04DX003 (ip), vehicle: saline with Tween-80
[9] = dose: 25.0 mg/kg/injection, schedule: Q01DX001 (ip), vehicle: saline with Tween-80
[10] = dose: 100.0 mg/kg/injection, schedule: Q04DX003 (ip), vehicle: other
[11] = dose: 100.0 mg/kg/injection, schedule: Q01DX009 (ip), vehicle: saline with Tween-80
[12] = dose: 200.0 mg/kg/injection, schedule: Q01DX009 (ip), vehicle: saline with Tween-80
[13] = dose: 100.0 mg/kg/injection, schedule: Q01DX009 (ip), vehicle: Klucel (hydroxypropylcellulose) (HPC)
[14] = dose: 200.0 mg/kg/injection, schedule: Q01DX009 (ip), vehicle: Klucel (hydroxypropylcellulose) (HPC)
[15] = dose: 100.0 mg/kg/injection, schedule: Q04DX002 (ip), vehicle: saline with Tween-80
[16] = dose: 200.0 mg/kg/injection, schedule: Q04DX002 (ip), vehicle: saline with Tween-80
[17] = dose: 400.0 mg/kg/injection, schedule: Q04DX002 (ip), vehicle: saline with Tween-80
[18] = dose: 100.0 mg/kg/injection, schedule: Q01DX001 (ip), vehicle: saline with Tween-80
[19] = dose: 400.0 mg/kg/injection, schedule: Q01DX001 (ip), vehicle: saline with Tween-80

Cc1[nH]c(=S)[nH]c(=O)c1CCS
T/C [1]: 98 % of control
T/C [2]: 93 % of control
T/C [3]: 95 % of control

CS(=O)(=O)Nc1cc(C(O)C2CCCCN2)ccc1O (centres undefined)
T/C (dose: 25.0 mg/kg/injection, schedule: Q01DX009 (ip), vehicle: saline): 103 % of control
T/C (dose: 50.0 mg/kg/injection, schedule: Q01DX009 (ip), vehicle: saline): 97 % of control
T/C (dose: 100.0 mg/kg/injection, schedule: Q01DX009 (ip), vehicle: saline): 95 % of control
T/C [4]: 104 % of control
T/C [5]: 104 % of control

CN(C)C(=O)N/C=C/NC(=O)N(C)C
T/C (dose: 12.5 mg/kg/injection, schedule: Q04DX002 (ip), vehicle: saline with Tween-80): 92 % of control
T/C (dose: 25.0 mg/kg/injection, schedule: Q04DX002 (ip), vehicle: saline with Tween-80): 89 % of control
T/C [6]: 106 % of control

Cn1c(=O)c2[nH]cnc2n(C)c1=O (tested in a mixture with another compound)
T/C [7]: 97 % of control
T/C [8]: 96 % of control

CC1=NNC(=O)CC1
T/C [4]: 102 % of control
T/C [5]: 104 % of control
T/C (dose: 400.0 mg/kg/injection, schedule: Q04DX003 (ip), vehicle: saline): 96 % of control

COc1cccc(CC#N)c1
T/C (dose: 12.5 mg/kg/injection, schedule: Q01DX001 (ip), vehicle: saline with Tween-80): 106 % of control
T/C [9]: 93 % of control
T/C (dose: 50.0 mg/kg/injection, schedule: Q01DX001 (ip), vehicle: saline with Tween-80): 97 % of control

O=COC(CCCc1ccccc1)c1ccc2c(c1)OCO2 (centres undefined)
T/C [10]: 93 % of control
T/C (dose: 200.0 mg/kg/injection, schedule: Q04DX003 (ip), vehicle: other): 93 % of control
T/C (dose: 400.0 mg/kg/injection, schedule: Q04DX003 (ip), vehicle: other): 98 % of control

NC(=O)NC12CC3CC(CC(C3)C1)C2
T/C [1]: 89 % of control
T/C [2]: 89 % of control
T/C [3]: 101 % of control

COc1ccc(CCNC(=O)Cc2ccccc2[N+](=O)[O-])cc1OC
T/C (dose: 10.0 mg/kg/injection, schedule: Q01DX001 (ip), vehicle: carboxymethylcellulose (CMC)): 100 % of control
T/C (dose: 20.0 mg/kg/injection, schedule: Q01DX001 (ip), vehicle: carboxymethylcellulose (CMC)): 100 % of control
T/C (dose: 40.0 mg/kg/injection, schedule: Q01DX001 (ip), vehicle: carboxymethylcellulose (CMC)): 96 % of control
T/C (dose: 80.0 mg/kg/injection, schedule: Q01DX001 (ip), vehicle: carboxymethylcellulose (CMC)): 96 % of control

CCC(CC)C(O)CC(O)CC(C)C (centres undefined)
T/C (dose: 25.0 mg/kg/injection, schedule: Q04DX003 (ip), vehicle: other): 100 % of control
T/C (dose: 50.0 mg/kg/injection, schedule: Q04DX003 (ip), vehicle: other): 106 % of control
T/C [10]: 101 % of control

O=C1c2ccccc2C(=O)N1CNc1ccc(Cl)cn1
T/C [11]: 89 % of control
T/C [12]: 87 % of control
T/C (dose: 400.0 mg/kg/injection, schedule: Q01DX009 (ip), vehicle: saline with Tween-80): 101 % of control

CCCC1C2=C(C(=O)OC2=O)C2C(CC)CC3=C(C(=O)OC3=O)C12 (centres undefined)
T/C (dose: 12.5 mg/kg/injection, schedule: Q01DX001 (ip), vehicle: Klucel (hydroxypropylcellulose) (HPC)): 90 % of control
T/C (dose: 25.0 mg/kg/injection, schedule: Q01DX001 (ip), vehicle: Klucel (hydroxypropylcellulose) (HPC)): 94 % of control
T/C (dose: 50.0 mg/kg/injection, schedule: Q01DX001 (ip), vehicle: Klucel (hydroxypropylcellulose) (HPC)): 94 % of control
T/C (dose: 56.25 mg/kg/injection, schedule: Q04DX003 (ip), vehicle: Klucel (hydroxypropylcellulose) (HPC)): 97 % of control
T/C (dose: 100.0 mg/kg/injection, schedule: Q01DX001 (ip), vehicle: Klucel (hydroxypropylcellulose) (HPC)): 95 % of control
T/C (dose: 112.5 mg/kg/injection, schedule: Q04DX003 (ip), vehicle: Klucel (hydroxypropylcellulose) (HPC)): 95 % of control
T/C (dose: 150.0 mg/kg/injection, schedule: Q01DX001 (ip), vehicle: Klucel (hydroxypropylcellulose) (HPC)): 89 % of control
T/C (dose: 225.0 mg/kg/injection, schedule: Q01DX001 (ip), vehicle: Klucel (hydroxypropylcellulose) (HPC)): 97 % of control
T/C (dose: 225.0 mg/kg/injection, schedule: Q04DX003 (ip), vehicle: Klucel (hydroxypropylcellulose) (HPC)): 94 % of control

C#CC1(NC(c2cc(Cl)cc(Cl)c2O)P(=O)(c2ccccc2)c2ccccc2)CCCCC1 (centres undefined)
T/C [13]: 94 % of control
T/C [14]: 102 % of control

CCCCCCCCN1CCCC(OC(=O)N(C)C)C1 (centres undefined)
T/C (dose: 25.0 mg/kg/injection, schedule: Q04DX002 (ip), vehicle: saline): 106 % of control
T/C (dose: 50.0 mg/kg/injection, schedule: Q04DX002 (ip), vehicle: saline): 95 % of control
T/C (dose: 100.0 mg/kg/injection, schedule: Q04DX002 (ip), vehicle: saline): 112 % of control

CCOP(=S)(N1CC1(C)C)N1CC1(C)C (centres undefined)
T/C (dose: 12.5 mg/kg/injection, schedule: Q01DX015 (ip), vehicle: carboxymethylcellulose (CMC)): 105 % of control
T/C (dose: 25.0 mg/kg/injection, schedule: Q01DX015 (ip), vehicle: carboxymethylcellulose (CMC)): 105 % of control
T/C (dose: 50.0 mg/kg/injection, schedule: Q01DX015 (ip), vehicle: carboxymethylcellulose (CMC)): 111 % of control
T/C (dose: 100.0 mg/kg/injection, schedule: Q01DX015 (ip), vehicle: carboxymethylcellulose (CMC)): 152 % of control
T/C (dose: 200.0 mg/kg/injection, schedule: Q01DX015 (ip), vehicle: carboxymethylcellulose (CMC)): 164 % of control

O=C1C(=O)C2CCC1C2
T/C (dose: 25.0 mg/kg/injection, schedule: Q04DX002 (ip), vehicle: other): 100 % of control
T/C (dose: 50.0 mg/kg/injection, schedule: Q04DX002 (ip), vehicle: other): 98 % of control
T/C (dose: 100.0 mg/kg/injection, schedule: Q04DX002 (ip), vehicle: other): 98 % of control

C/C=C(\C)C(=O)OC1CC(C)=C2C(=O)C=C(C)C2C2OC(=O)C(C)C12 (centres undefined)
T/C (dose: 100.0 mg/kg/injection, schedule: Q04DX003 (ip), vehicle: Klucel (hydroxypropylcellulose) (HPC)): 98 % of control
T/C (dose: 200.0 mg/kg/injection, schedule: Q04DX003 (ip), vehicle: Klucel (hydroxypropylcellulose) (HPC)): 102 % of control
T/C (dose: 400.0 mg/kg/injection, schedule: Q04DX003 (ip), vehicle: Klucel (hydroxypropylcellulose) (HPC)): 96 % of control

COc1ccc([N+](=O)[O-])cc1NC(=O)Oc1ccc(SC)cc1
T/C (dose: 50.0 mg/kg/injection, schedule: Q01DX009 (ip), vehicle: Klucel (hydroxypropylcellulose) (HPC)): 111 % of control
T/C [13]: 92 % of control
T/C [14]: 100 % of control

CN(C)C(=S)N(C(=S)N(C)C)c1ccc(Cl)cc1
T/C [1]: 101 % of control
T/C [2]: 92 % of control
T/C [3]: 97 % of control

CC(C)(C)SC(=O)Cc1ccc([N+](=O)[O-])cc1
T/C [6]: 90 % of control
T/C [15]: 100 % of control
T/C [16]: 93 % of control
T/C [17]: 87 % of control

CCO/C=C/C(=O)NC(=S)Nc1ccccc1
T/C [18]: 97 % of control
T/C [11]: 86 % of control
T/C (dose: 200.0 mg/kg/injection, schedule: Q01DX001 (ip), vehicle: saline with Tween-80): 100 % of control
T/C [12]: 86 % of control
T/C [19]: 102 % of control

S=C(NC1CCCCC1)NC1CC2C=CC1C2 (centres undefined)
T/C [15]: 90 % of control
T/C [16]: 93 % of control
T/C [17]: 93 % of control

CNC(=O)c1ccc(C(=O)NC)cc1
T/C [7]: 94 % of control
T/C [8]: 103 % of control
T/C (dose: 400.0 mg/kg/injection, schedule: Q04DX003 (ip), vehicle: saline with Tween-80): 100 % of control

Clc1ccc(OCC2=NCCc3ccccc32)cc1
T/C (dose: 300.0 mg/kg/injection, schedule: Q01DX001 (ip), vehicle: saline): 98 % of control
T/C [3]: 104 % of control

CCCCCCCCCCNC(C1=C(O)c2ccccc2C(=O)C1=O)c1ccccc1 (centres undefined)
T/C [9]: 89 % of control
T/C [18]: 89 % of control
T/C [19]: 86 % of control

CC(=O)c1cccc(NC(=O)N2CCCCC2C)c1 (centres undefined)
T/C [13]: 111 % of control
T/C [14]: 112 % of control
T/C (dose: 400.0 mg/kg/injection, schedule: Q01DX009 (ip), vehicle: Klucel (hydroxypropylcellulose) (HPC)): 103 % of control

— PubChem BioAssay AID248 (DTP/NCI, 2004)
